In assay [1] the test system is classical pathway mediated C5a release (complement C5). Kind of assay: Inhibition of classical pathway mediated C5a release (ELISA). Type of assay: biochemical, human. To be noted: n=3 (K8: n=5), ND* = Not detected. How it is done:
For the C5b ELISA, assays were run using the CP and AP Complement functional ELISA kits (Svar Life Science, Malmö, Sweden). For sample preparation, serum was diluted as per the respective protocol for the CP and AP assays. Serial dilutions of peptides were prepared and allowed to incubate with serum for 15 min at room temperature prior to plating.
For the C5a ELISA, assays were run using the Complement C5a Human ELISA Kit (Invitrogen, Renfrew, UK). For sample preparation, at the end of the 37°C incubation of the serum/peptide samples on the C5b ELISA plate, 50 µL of the diluted, activated serum was transferred to a C5a ELISA plate containing 50 µL/well of assay buffer. All subsequent experimental steps were performed as described in the protocol.
Table 1.3. Inhibition of classical pathway mediated C5a release.
Data from n=3 independent titrations, unless otherwise stated

For assay [2], the system named is sheep erythrocytes (classical pathway haemolysis). Kind of assay: Inhibition of classical pathway haemolysis. To be noted: 1% serum. Type of assay: cell-based, sheep erythrocytes; normal human serum. How it is done: GVB^++ or Mg EGTA buffers, which had been supplemented with 2.5% glucose (w/v), were used for the CP and AP assays, respectively. For the AP, 150 µL of rabbit erythrocytes (TCS Biosciences, Botolph Claydon, UK) were washed twice, by addition of 1 mL of buffer and centrifugation at 800 ×g for 1 min, and finally resuspended in 500 µL of buffer. For the CP, 150 µL sheep erythrocytes (TCS Biosciences, Botolph Claydon, UK) were washed twice with 1 mL of buffer and sensitised with a 1/1000 dilution of rabbit anti-sheep red blood cell stroma antibody (S1389, Sigma Aldrich, Gillingham, UK). After a 30°C/30 min incubation, with shaking, the cells were rewashed and resuspended with 500 µL of buffer. Serial dilutions of peptide were prepared in the respective buffers and normal human serum was added at 1% for the CP and 4.5% for the AP (corresponding to CH50 of the serum). Also, 90 µL of peptide–serum mixtures were plated into a V-bottom 96-well microtiter plate (Corning) and 10 µL of erythrocytes were added. Plates were incubated for 30 min at 37°C, with shaking. Finally, 50 µL of buffer was added, the plates centrifuged at 800 ×g, and 80 µL of supernatant was transferred to an ELISA plate (Nunc) and absorbance measured at 405 nm.
Table 1.7. Inhibition of classical pathway haemolysis.

The target in a further assay is T1, human C5 (Homo sapiens, UniProt P01031).
T1 construct: tissue TCS Biosciences (serum); host or cells: human serum
The assay can be described thus: SPR multi-cycle kinetics, binding to C5. How it is done:
Kinetics were measured using a Biacore 8K (GE Healthcare, Amersham, UK) with a CM5 chip, which was prepared as follows: 1-ethyl-3-(−3-dimethylaminopropyl) carbodiimide hydrochloride (EDC)/N-hydroxysuccinimide (NHS) was mixed at 1:1 ratio (flow rate, 10 µL/min; contact time, 30 s), and human C5 at 1 µg/mL in pH 4.5 sodium acetate buffer was injected over flow cell one only (flow rate, 10 µL/min; contact time, 60 s). Final immobilisation levels in the range of 2000–3000 RUs were obtained to yield theoretical Rmax values of ~50–60 RU. […] After each injection, the surface was regenerated with two sequential injections of 2 M MgCl2 (flow rate, 30 µL/min; contact time, 30 s). Binding to the reference surface was subtracted, and the data were fitted to a single-site binding model using Biacore evaluation software.
Table 2.6. Validation of molecular interactions by peptide mutagenesis analysis.
Summary of SPR multi-cycle kinetics

Another assay has as its system C3b deposition. The assay can be described thus: C3b deposition ELISA (CP and AP). Type of assay: biochemical. To be noted: CP (1% serum) and AP (5% serum) ELISA, anti-human C3d. How it is done: (§1) For the C3 and C9 ELISAs, microtiter plates (MaxiSorp; Nunc) were incubated overnight at 4°C with 50 µL of a solution of in 75 mM sodium carbonate (pH 9.6) containing either 2.5 µg/mL aggregated human IgG (Sigma-Aldrich, Gillingham, UK) for CP or 20 µg/mL zymosan (Sigma-Aldrich, Gillingham, UK) for AP. As a negative control, wells were coated with 1% (w/v) bovine serum albumin (BSA)/PBS. Microtiter plates were washed four times with 250 µL of wash buffer (50 mM Tris-HCl), 150 mM NaCl and 0.1% Tween 20 (pH 8) between each step of the procedure. Wells were blocked using 250 µL of 1% (w/v) BSA/PBS for 2 hr at room temperature. […] Complement activation was assessed through detection of deposited complement activation factors using specific antibodies against C3b (rat anti-human C3d HM2198, Hycult, Uden, The Netherlands) and C9 (goat anti-human C9, A226, Complement Technologies Tyler, TX) at a 1:1000 dilution. Bound primary antibodies were detected with […]-conjugated goat anti-rat (ab97057, Abcam, Cambridge, UK) or rabbit anti-goat (P0449, Agilent Dako, Santa Clara, CA) secondary antibodies at a 1:1000 dilution. Bound HRP-conjugated antibodies were detected using TMB One solution (Eco-TEK – manufactured by Bio-TEK, Winooski, VT) with absorbance measured at 450 nm.

Another assay deals with C5 activation by the AP. Kind of assay: Complement activation assays, alternative pathway (overall). Type of assay: biochemical. To be noted: C5a release, C5b neo-epitope formation and C9 deposition ELISAs; human serum. How it is done:
For functional characterisation of the peptides, we performed complement assays for CP and AP activation in human serum, assessing C5b neo-epitope formation and C5a release (schematically presented in Figure 1A, B), in combination with orthogonal ELISAs, measuring C3b and C9 deposition.
as §1, with “(BSA)/PBS.” for “(BSA)/PBS. Microtiter plates were washed four times with 250 µL of wash buffer (50 mM Tris-HCl), 150 mM NaCl and 0.1% Tween 20 (pH 8) between each step of the procedure. Wells were blocked using 250 µL of 1% (w/v) BSA/PBS for 2 hr at room temperature.”, “nm. […]” for “nm.”

Like-named read-outs stand apart in the source and are kept apart here. Bridges are numbered along the chain shown (N, C = ends). Where no end group is shown, it is not given here.

T1 sequence (P01031 678-1676 limits assumed): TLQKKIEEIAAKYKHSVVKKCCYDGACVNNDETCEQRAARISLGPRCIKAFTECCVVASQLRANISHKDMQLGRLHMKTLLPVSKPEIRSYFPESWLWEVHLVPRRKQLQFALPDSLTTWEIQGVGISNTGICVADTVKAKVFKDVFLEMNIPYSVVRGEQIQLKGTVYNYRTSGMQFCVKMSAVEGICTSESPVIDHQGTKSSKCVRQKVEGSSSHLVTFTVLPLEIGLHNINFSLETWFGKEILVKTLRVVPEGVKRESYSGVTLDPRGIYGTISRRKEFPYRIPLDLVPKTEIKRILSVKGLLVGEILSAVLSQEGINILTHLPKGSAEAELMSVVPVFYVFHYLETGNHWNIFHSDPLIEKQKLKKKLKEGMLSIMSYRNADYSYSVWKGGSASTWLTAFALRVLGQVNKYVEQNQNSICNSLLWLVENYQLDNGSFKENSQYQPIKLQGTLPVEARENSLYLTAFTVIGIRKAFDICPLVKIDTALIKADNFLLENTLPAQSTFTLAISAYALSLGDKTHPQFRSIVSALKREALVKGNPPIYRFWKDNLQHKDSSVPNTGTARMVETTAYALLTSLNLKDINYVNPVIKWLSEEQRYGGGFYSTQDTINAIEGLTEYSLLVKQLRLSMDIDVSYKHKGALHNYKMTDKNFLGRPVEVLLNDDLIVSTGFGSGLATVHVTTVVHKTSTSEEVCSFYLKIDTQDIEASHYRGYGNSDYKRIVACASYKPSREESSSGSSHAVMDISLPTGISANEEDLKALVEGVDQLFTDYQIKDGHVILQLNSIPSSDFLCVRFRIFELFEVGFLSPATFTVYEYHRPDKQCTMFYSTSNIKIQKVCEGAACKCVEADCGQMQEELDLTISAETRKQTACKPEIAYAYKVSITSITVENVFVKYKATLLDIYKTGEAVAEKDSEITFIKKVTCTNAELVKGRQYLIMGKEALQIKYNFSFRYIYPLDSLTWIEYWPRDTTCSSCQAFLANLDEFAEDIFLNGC
T1 sequence (P01031 19-673 limits assumed): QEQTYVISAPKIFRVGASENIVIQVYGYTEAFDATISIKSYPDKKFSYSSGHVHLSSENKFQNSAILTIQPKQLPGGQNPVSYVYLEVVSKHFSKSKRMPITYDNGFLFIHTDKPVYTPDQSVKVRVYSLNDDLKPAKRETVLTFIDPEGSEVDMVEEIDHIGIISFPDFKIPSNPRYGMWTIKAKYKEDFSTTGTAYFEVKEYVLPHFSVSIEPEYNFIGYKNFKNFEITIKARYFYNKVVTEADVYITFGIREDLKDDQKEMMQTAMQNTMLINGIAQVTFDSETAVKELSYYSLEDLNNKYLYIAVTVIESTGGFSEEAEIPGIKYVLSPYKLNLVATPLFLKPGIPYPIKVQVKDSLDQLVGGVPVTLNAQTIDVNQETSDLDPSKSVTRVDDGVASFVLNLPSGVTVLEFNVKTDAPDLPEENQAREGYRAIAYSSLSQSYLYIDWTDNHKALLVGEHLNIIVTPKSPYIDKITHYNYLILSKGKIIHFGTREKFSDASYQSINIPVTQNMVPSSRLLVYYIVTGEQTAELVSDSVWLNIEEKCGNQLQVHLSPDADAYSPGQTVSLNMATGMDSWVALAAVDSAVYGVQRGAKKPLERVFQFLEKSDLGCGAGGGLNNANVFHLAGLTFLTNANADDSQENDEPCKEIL

As to “SVCPDGFDWGYGCAAGSSRFCTRHDWCCYDERADSHTYGFCTGNRVENLYFQ (disulfide 3-28, 13-21, 27-41) [K8]”, the “Average Emax” value in assay [1] (CP C5a release) was determined as 57.7%; in assay [2] (CP haemolysis, n=3, ND* = Not detected) it was 95.6%. The IC50 in assay [1] (CP, C5a Human ELISA kit (Invitrogen) on activated serum from C5b ELISA plate, read-out: Geomean IC50) came out at 9.9 nM. Moreover, the “inhibition of CP haemolysis (in words)” value in assay [2] (sheep erythrocytes) is on record as “efficacious in the CP assay”. For the same sequence, the mean stoich. ratio at human C5 (Biacore 8K, mean of n=3) is on record as 0.25. The koff came out at 0.000385 s⁻¹ on human C5 (pH 7.4, read-out: mean koff, Biacore 8K, HBS-EP pH 7.4, mean of n=3); 0.000372 s⁻¹ on human C5 (replicate n=1); 0.000422 s⁻¹ at human C5 (replicate n=2); 0.000361 s⁻¹ at human C5 (replicate n=3). Moreover, the kon on human C5 (pH 7.4, read-out: mean kon, Biacore 8K, CM5 chip, HBS-EP pH 7.4, mean of n=3) was found to be 70500 M⁻¹ s⁻¹; at human C5 (replicate n=1), 71000 M⁻¹ s⁻¹; at human C5 (replicate n=2), 72600 M⁻¹ s⁻¹; on human C5 (replicate n=3), 67800 M⁻¹ s⁻¹. Moreover, the figures for the stoich. ratio on human C5 (replicate n=1), on human C5 (replicate n=2) and on human C5 (replicate n=3) were 0.28, 0.23 and 0.24, respectively. In addition, the “effect on C3b deposition” value with C3b deposition was “no effect on C3b deposition was detected”. In the assay with C5 activation by the AP, the “inhibition of C5 activation, AP assays (in words)” value is “partially inhibiting both the AP and CP”.

For the origin of these results see article PMC7972453, “The allosteric modulation of complement C5 by knob domain peptides” (eLife, 2021).
